Here are results for 18 compounds from patent publication US12649733B2, “3,6-diamino-pyridazin-3-yl derivatives, pharmaceutical compositions containing them and their uses as pro-apoptotic agents” (LES LABORATOIRES SERVIER, priority 2019, dated 2026).

Test [1] relates to MOLT-4 cells. Description: MOLT-4 cell viability, MTT assay. It counts as cell-based. The settings on record: Homo sapiens, MOLT-4, 48 h, 48 h exposure. In short, it runs like this:
(§1)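 Cells grown in RPMI 1640 with 10% heat-inactivated FBS at 37° C, 5% CO2, exposed 48 h to nine 3.16-fold serial compound dilutions in triplicate. MTT added for 4 h, SDS/HCl solubilisation overnight, absorbance at 540 nm; IC50 by four-parameter fit.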
In general terms: Tetrazolium assays rely on reduction of a dye to a coloured formazan, in cell work by metabolically active cells.

For test [2], the system named is H146 cells. Description: H146 cell viability, MTT assay. It counts as cell-based. The settings on record: Homo sapiens, NCI-H146, 48 h, 48 h exposure. In outline:
as §1

Test [3] has as its target BCLXL (Homo sapiens, UniProt Q07817, V10N/V9A). Put plainly: Fluorescence polarisation assay (PUMA-based probe displacement). Note: 20 nM protein, 10 nM fluorescent probe. It counts as binding.
The target in test [4] is T1, Bcl-xL protein (Homo sapiens, UniProt Q07817, N197C).
T1 construct: (2-197)[N197C]; His-His (two His8 stretches joined by a Gly/Ala/Ser/Thr linker)
T1 sequence (Q07817 2-197 N197C): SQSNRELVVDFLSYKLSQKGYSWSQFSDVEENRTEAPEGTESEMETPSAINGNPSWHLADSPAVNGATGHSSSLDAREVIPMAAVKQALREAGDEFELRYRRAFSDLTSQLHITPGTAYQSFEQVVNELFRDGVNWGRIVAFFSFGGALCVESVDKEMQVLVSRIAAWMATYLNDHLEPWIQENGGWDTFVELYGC
Put plainly: Fluorescence quenching assay (PUMA peptide displacement). It counts as binding. The settings on record: 1 nM protein, 400 nM peptide, 2 hours at 23° C.; KI determined from IC50. The source says: Fluorescence quenching assay measures the change in fluorescence intensity of C-terminally Cy5-labeled BCL-xL protein, His-His-(EK)-hs ? (2-197)[N197C] (UniProtKB® primary accession number Q07817-1) having an amino acid sequence (SEQ ID:03): [[…] […] […] […] […]] which is linked in C-terminal region to the amino acid X which corresponds to a cysteine labeled on the sulfur with Sulfo-Cyanine5 from Lumiprobe GmbH catalogue number 13380, upon binding of a C-terminally labeled peptide derived from PUMA (UniProtKB® primary accession number Q9BXH1) having an aminoacid sequence (SEQ ID:04): [[…]] which is linked in C-terminal region to the amino acid X′ where X′ is cysteine labeled on the sulfur with TQ5WS from AAT Bioquest catalogue number 2079.
The addition of a compound which binds competitively to the same site as the peptide will result in an increase in the fluorescence intensity of the protein due to displacement of the fluorescence quencher.
An 11-point serial dilution of each compound was prepared in DMSO the final buffer conditions were 10 mM 4-(2-hydroxyethyl)-1-piperazineethanesulfonic acid [HEPES], 150 mM NaCl, 0.05% Tween 20, pH 7.4 and 5% DMSO. The final protein concentration in the assay was 1 nM with the peptide present at 400 nM. The experiments were incubated for 2 hours at 23° C. before fluorescence intensity was measured on a Biotek SynergyNeo plate reader (Excitation 620 nm, emission 680 nm). […] The KI values were determined from the IC50 values according to Cer et al, Nucleic Acids Res, 2009, Jul. 1: 37(WebServer issue): W441-W445.

Chain of BCLXL (Q07817 with tags, fused parts or gaps V9A/V10N): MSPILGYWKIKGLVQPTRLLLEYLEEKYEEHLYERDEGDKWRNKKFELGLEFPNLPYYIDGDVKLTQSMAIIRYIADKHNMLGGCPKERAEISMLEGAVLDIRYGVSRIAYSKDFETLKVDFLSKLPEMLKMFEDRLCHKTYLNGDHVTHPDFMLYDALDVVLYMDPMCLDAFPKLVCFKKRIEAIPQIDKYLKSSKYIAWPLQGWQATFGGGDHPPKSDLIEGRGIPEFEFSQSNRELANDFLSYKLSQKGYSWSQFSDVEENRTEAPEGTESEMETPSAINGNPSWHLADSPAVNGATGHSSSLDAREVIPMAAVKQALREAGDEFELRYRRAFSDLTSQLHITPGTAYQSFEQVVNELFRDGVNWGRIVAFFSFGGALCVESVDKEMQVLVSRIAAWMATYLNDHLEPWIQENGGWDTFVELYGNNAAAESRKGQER

One may read the IC50 as the point on the concentration scale where inhibition reaches its midpoint. The Ki is the equilibrium dissociation constant of an inhibitor or competing ligand from its target. For the compound `Cc1cc(N(C)c2nc(C(=O)O)c(C3CCN(C(=O)OC(C)(C)C)CC3)s2)nnc1Nc1nc2ccccc2s1` [Example 84, 2-({6-[(1,3-Benzothiazol-2-yl)amino]-5-methylpyridazin-3-yl}(methyl)amino)-5-{1-[(tert-butoxy)carbonyl]piperidin-4-yl}-1,3-thiazole-4-carboxylic acid], the IC50 was 7570 nM in test [1] and over 15000 nM in test [2]. Besides, the Ki in test [3] is 49 nM.

For `Cc1cc(N(C)c2nc(C(=O)O)c(C3CCN(Cc4ccccc4)CC3)s2)nnc1Nc1nc2ccccc2s1` [Example 86, 2-({6-[(1,3-Benzothiazol-2-yl)amino]-5-methylpyridazin-3-yl}(methyl)amino)-5-(1-benzylpiperidin-4-yl)-1,3-thiazole-4-carboxylic acid], the figures for the IC50 in test [1] and in test [2] were 14600 nM and at least 12400 nM, respectively. For the same compound, the inhibition constant Ki in test [3] stood at 160 nM.

For `Cc1cc(N(C)c2nc(C(=O)O)c(C3CCN(CC(C)C)CC3)s2)nnc1Nc1nc2ccccc2s1` [Example 87, 2-({6-[(1,3-Benzothiazol-2-yl)amino]-5-methylpyridazin-3-yl}(methyl)amino)-5-[1-(2-methylpropyl)piperidin-4-yl]-1,3-thiazole-4-carboxylic acid], the IC50 in test [1] and in test [2] was over 15000 nM in each case. For the same compound, the inhibition constant (Ki) in test [3] is 530 nM.

In the case of `Cc1cc(N(C)c2nc(C(=O)O)c(N3CCC(COc4ccccc4)CC3)s2)nnc1Nc1nc2ccccc2s1` [Example 88, 2-({6-[(1,3-Benzothiazol-2-yl)amino]-5-methylpyridazin-3-yl}(methyl)amino)-5-[4-(phenoxymethyl)piperidin-1-yl]-1,3-thiazole-4-carboxylic acid], the figures for the 50% inhibitory concentration (IC50) in test [1] and in test [2] were 1610 nM and 11000 nM, respectively. Further, the inhibition constant (Ki) in test [3] stood at 2.8 nM.

`Cc1cc(N(C)c2nc(C(=O)O)c(C3CCCCC3)s2)nnc1Nc1nc2ccccc2s1` [Example 102, 2-({6-[(1,3-Benzothiazol-2-yl)amino]-5-methylpyridazin-3-yl}(methyl)amino)-5-cyclohexyl-1,3-thiazole-4-carboxylic acid]: the IC50 in test [1] and in test [2] was over 15000 nM throughout. In test [3], the Ki was found to be 220 nM.

In the case of `Cc1cc(N(C)c2nc(C(=O)O)c(C3CCCC3)s2)nnc1Nc1nc2ccccc2s1` [Example 105, 2-({6-[(1,3-Benzothiazol-2-yl)amino]-5-methylpyridazin-3-yl}(methyl)amino)-5-cyclopentyl-1,3-thiazole-4-carboxylic acid], the IC50 in test [1] and in test [2] was over 15000 nM throughout. The Ki in test [3] turned out to be 380 nM.

As to `C=Cc1sc(N(C)c2cc(C)c(Nc3nc4ccccc4s3)nn2)nc1C(=O)O` [Example 106, 2-({6-[(1,3-benzothiazol-2-yl)amino]-5-methylpyridazin-3-yl}(methyl)amino)-5-ethenyl-1,3-thiazole-4-carboxylic acid], the half-inhibitory concentration (IC50) in test [1] and in test [2] was over 15000 nM in each case. The inhibitory constant (Ki) in test [3] stood at 27 nM.

On to `CNCCN(C)CCCCN(c1cc(C)c(Nc2nc3ccccc3s2)nn1)c1nc(C(=O)O)c(CCCOc2ccc(C#CCN(C)C)cc2F)s1` [Example 178, 2-[[6-(1,3-Benzothiazol-2-ylamino)-5-methyl-pyridazin-3-yl]-[4-[methyl-[2-(methylamino)ethyl]amino]butyl]amino]-5-[3-[4-[3-(dimethylamino)prop-1-ynyl]-2-fluoro-phenoxy]propyl]thiazole-4-carboxylic acid], for which the Ki in test [4] was found to be 0.0074 nM.

For the compound `Cc1cc(N(CCCCNCCN2CCCCC2)c2nc(C(=O)O)c(CCCOc3ccc(C#CCN(C)C)cc3F)s2)nnc1Nc1nc2ccccc2s1` [Example 179, 2-[[6-(1,3-Benzothiazol-2-ylamino)-5-methyl-pyridazin-3-yl]-[4-[2-(1-piperidyl)ethylamino]butyl]amino]-5-[3-[4-[3-(dimethylamino)prop-1-ynyl]-2-fluoro-phenoxy]propyl]thiazole-4-carboxylic acid], the Ki in test [4] is 0.0068 nM.

`Cc1cc(N(CCCCNCCN2CCOCC2)c2nc(C(=O)O)c(CCCOc3ccc(C#CCN(C)C)cc3F)s2)nnc1Nc1nc2ccccc2s1` [Example 180, 2-[[6-(1,3-Benzothiazol-2-ylamino)-5-methyl-pyridazin-3-yl]-[4-(2-morpholinoethylamino)butyl]amino]-5-[3-[4-[3-(dimethylamino)prop-1-ynyl]-2-fluoro-phenoxy]propyl]thiazole-4-carboxylic acid]: in test [4], the inhibition constant Ki was 0.0052 nM.

Consider `Cc1cc(N(CCCCNC2CCN(C)CC2)c2nc(C(=O)O)c(CCCOc3ccc(C#CCN(C)C)cc3F)s2)nnc1Nc1nc2ccccc2s1` [Example 181, 2-[[6-(1,3-Benzothiazol-2-ylamino)-5-methyl-pyridazin-3-yl]-[4-[(1-methyl-4-piperidyl)amino]butyl]amino]-5-[3-[4-[3-(dimethylamino)prop-1-ynyl]-2-fluoro-phenoxy]propyl]thiazole-4-carboxylic acid], for which, in test [4], the Ki is 0.0043 nM.

`CNCC#Cc1ccc(OCCCc2sc(N(C)c3cc(C(F)(F)F)c(Nc4nc5ccccc5s4)nn3)nc2C(=O)O)c(F)c1` [Example 209, 2-[[6-(1,3-Benzothiazol-2-ylamino)-5-(trifluoromethyl)pyridazin-3-yl]-methyl-amino]-5-[3-[2-fluoro-4-[3-(methylamino)prop-1-ynyl]phenoxy]propyl]thiazole-4-carboxylic acid]: the inhibition constant (Ki) in test [4] amounted to 0.023 nM.

`Cc1cc(N(CCCCC[N+](C)(C)CCO)c2nc(C(=O)[O-])c(CCCOc3ccc(C#CCN(C)C)cc3F)s2)nnc1Nc1nc2ccccc2s1` [Example 226, 2-[[6-(1,3-Benzothiazol-2-ylamino)-5-methyl-pyridazin-3-yl]-[5-[2-hydroxyethyl(dimethyl)ammonio]pentyl]amino]-5-[3-[4-[3-(dimethylamino)prop-1-ynyl]-2-fluoro-phenoxy]propyl]thiazole-4-carboxylate] came in with an IC50 in test [1] of 752 nM. Moreover, the Ki in test [4] stood at 0.0053 nM.

Turning to `Cc1cc(N(CCCCC[N+](C)(C)CC(=O)O)c2nc(C(=O)[O-])c(CCCOc3ccc(C#CCN(C)C)cc3F)s2)nnc1Nc1nc2ccccc2s1` [Example 227, 2-[[6-(1,3-Benzothiazol-2-ylamino)-5-methyl-pyridazin-3-yl]-[5-[carboxymethyl(dimethyl)ammonio]pentyl]amino]-5-[3-[4-[3-(dimethylamino)prop-1-ynyl]-2-fluoro-phenoxy]propyl]thiazole-4-carboxylate], the half-inhibitory concentration (IC50) in test [1] is 802 nM. Also, the Ki in test [4] was 0.0035 nM.

On to `CNCC#Cc1ccc(OCCCc2sc(N(CCCC[N+](C)(C)C)c3cc(C)c(Nc4nc5ccccc5s4)nn3)nc2C(=O)O)c(F)c1` [Example 232, 2-[[6-(1,3-Benzothiazol-2-ylamino)-5-methyl-pyridazin-3-yl]-[4-(trimethylammonio)butyl]amino]-5-[3-[2-fluoro-4-[3-(methylamino)prop-1-ynyl]phenoxy]propyl]thiazole-4-carboxylate], for which the Ki in test [4] was 0.0017 nM.

In test [1], `CNCC#Cc1ccc(OCCCc2sc(N(CCCP(=O)(O)O)c3cc(C)c(Nc4nc5ccccc5s4)nn3)nc2C(=O)O)c(F)c1` [Example 237, 2-[[6-(1,3-Benzothiazol-2-ylamino)-5-methyl-pyridazin-3-yl]-(3-phosphonopropyl)amino]-5-[3-[2-fluoro-4-[3-(methylamino)prop-1-ynyl]phenoxy]propyl]thiazole-4-carboxylic acid] returned a 50% inhibitory concentration (IC50) of 750 nM. Besides, the Ki in test [4] came out at 0.0018 nM.

In turn, `Cc1cc(N(CCCC(=O)O)c2nc(C(=O)O)c(CCCOc3ccc(C#CCN(C)C)cc3F)s2)nnc1Nc1nc2ccccc2s1` [Example 238, 2-({6-[(1,3-Benzothiazol-2-yl)amino]-5-methylpyridazin-3-yl}(3-carboxypropyl)amino)-5-(3-{4-[3-(dimethylamino)prop-1-yn-1-yl]-2-fluorophenoxy}propyl)-1,3-thiazole-4-carboxylic acid] gave an IC50 in test [1] of 149 nM. For the same compound, in test [4], the inhibitory constant (Ki) turned out to be 0.0045 nM.

For `Cc1cc(N(CCCP(=O)(O)O)c2nc(C(=O)O)c(CCCOc3ccc(C#CCN(C)C)cc3F)s2)nnc1Nc1nc2ccccc2s1` [Example 239, 2-({6-[(1,3-Benzothiazol-2-yl)amino]-5-methylpyridazin-3-yl}(3-phosphonopropyl)amino)-5-(3-{4-[3-(dimethylamino)prop-1-yn-1-yl]-2-fluorophenoxy}propyl)-1,3-thiazole-4-carboxylic acid], inhibition in test [1] was half-maximal at 314 nM (IC50). Also, the Ki in test [4] is 0.0027 nM.
